From BindingDB's records for patent US20250313563 (The Broad Institute, 2025)
Several values for one entry are separate records, joined by “and”; a condition that tells them apart may be missing. Equal values may be shown once.

Legend:
[1] = biological target: Glycogen synthase kinase-3 alpha (Homo sapiens, UniProt P49840); assay: TR-FRET Assay
Summary of the method: (§1)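 30 min preinc w/ cpd in assay buffer → kinase rxn → EDTA quench → add detection mix (40 nM SA-d2, 2 nM Tb-pSer641 Ab) → TR-FRET read.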

[2] = biological target: Glycogen synthase kinase-3 beta (Homo sapiens, UniProt P49841); assay: TR-FRET Assay
Sequence of Glycogen synthase kinase-3 beta (P49841 whole entry): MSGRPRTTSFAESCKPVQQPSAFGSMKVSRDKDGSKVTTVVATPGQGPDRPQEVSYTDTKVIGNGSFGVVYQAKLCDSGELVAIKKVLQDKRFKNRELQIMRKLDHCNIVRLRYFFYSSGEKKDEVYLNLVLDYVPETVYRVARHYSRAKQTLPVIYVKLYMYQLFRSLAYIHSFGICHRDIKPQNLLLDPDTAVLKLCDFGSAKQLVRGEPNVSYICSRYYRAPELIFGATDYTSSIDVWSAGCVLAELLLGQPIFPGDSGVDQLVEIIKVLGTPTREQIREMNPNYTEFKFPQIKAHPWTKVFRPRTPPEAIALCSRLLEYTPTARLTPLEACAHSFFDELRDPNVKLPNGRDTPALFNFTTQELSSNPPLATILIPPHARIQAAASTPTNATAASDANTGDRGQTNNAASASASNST
Summary of the method: as §1

Sequence of Glycogen synthase kinase-3 alpha (P49840 whole entry): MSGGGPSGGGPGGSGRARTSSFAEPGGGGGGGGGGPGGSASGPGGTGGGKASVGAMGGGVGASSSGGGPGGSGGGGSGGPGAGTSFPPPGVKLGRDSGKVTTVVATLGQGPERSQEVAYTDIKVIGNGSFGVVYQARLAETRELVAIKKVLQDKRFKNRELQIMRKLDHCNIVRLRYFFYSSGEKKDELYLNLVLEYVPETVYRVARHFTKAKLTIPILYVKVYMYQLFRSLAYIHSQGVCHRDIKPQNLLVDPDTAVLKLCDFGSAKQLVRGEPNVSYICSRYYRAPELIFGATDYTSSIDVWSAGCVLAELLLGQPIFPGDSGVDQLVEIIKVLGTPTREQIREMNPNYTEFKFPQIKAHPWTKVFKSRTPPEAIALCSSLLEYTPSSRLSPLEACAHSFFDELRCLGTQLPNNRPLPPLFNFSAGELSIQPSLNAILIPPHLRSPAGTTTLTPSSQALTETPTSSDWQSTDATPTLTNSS

Row | SMILES | IC50 [1] | IC50 [2]
1 | CC[C@]1(c2cccc(-c3ccncc3F)c2)C2=C(CC(C)(C)CC2=O)NC2N=NC(C(F)(F)F)=C21 (some centres undefined) [US20250313563, Compound 947326] | < 100 nM | < 100 nM
2 | CC[C@]1(c2ccccc2)C2=CN=NC2NC2=C1C(=O)C[C@]1(CCOC1)C2 (some centres undefined) [US20250313563, Compound 816884] | 100 to 1000 nM | 1000 to 5000 nM
3 | CC[C@]1(c2cccc(S(=O)(=O)C(C)C)c2)C2=CN=NC2NC2=C1C(=O)CC(C)(C)C2 (some centres undefined) [US20250313563, Compound 913134] | 100 to 1000 nM | 1000 to 5000 nM
4 | COc1ccccc1S(=O)(=O)N1CC2(C1)C1=C(N=NC1)NC1=C2C(=O)CC(C)(C)C1 [US20250313563, Compound 913261] | < 100 nM | < 100 nM
5 | CCCS(=O)(=O)c1cccc([C@]2(CC)C3=CN=NC3NC3=C2C(=O)CC(C)(C)C3)c1 (some centres undefined) [US20250313563, Compound 929452] | 1000 to 5000 nM | > 5000 nM
6 | CCC1(c2cccc(-c3c(C)nn(C)c3C)c2)C2=C(CC(C)(C)NC2=O)NC2N=NC(C)=C21 (centres undefined) [US20250313563, Compound 945598] | < 100 nM | < 100 nM
7 | CCC1(c2cccc(-c3ccn(C)n3)c2)C2=C(CC(C)(C)CC2=O)NC2N=NC(C)=C21 (centres undefined) [US20250313563, Compound 883999] | < 100 nM | < 100 nM
8 | COc1ccc(S(=O)(=O)N2CCC[C@@]3(CC2)C2=CN=NC2NC2=C3C(=O)CC(C)(C)C2)cc1 (some centres undefined) [US20250313563, Compound 932661] | < 100 nM | 100 to 1000 nM
9 | CC[C@@]1(c2cccc(-c3cnn(C)c3)c2)C2=C(CC(C)(C)NC2=O)NC2N=NC(C(F)F)=C21 (some centres undefined) [US20250313563, Compound 949919] | < 100 nM | < 100 nM and 100 to 1000 nM
10 | CC1(C)CC(=O)C2=C(C1)NC1=C(CN=N1)C21CCN(S(=O)(=O)c2ccccc2C(F)(F)F)CC1 [US20250313563, Compound 945667] | < 100 nM | 100 to 1000 nM
11 | CC[C@@]1(c2cccc(-c3ccnc4ccccc34)c2)C2=CN=NC2NC2=C1C(=O)CC(C)(C)C2 (some centres undefined) [US20250313563, Compound 944031] | < 100 nM | < 100 nM
12 | CC[C@]1(c2cccc(N3C[C@H](C)[C@@H](C)C3)c2)C2=CN=NC2NC2=C1C(=O)CC(C)(C)C2 (some centres undefined) [US20250313563, Compound 924312] | 100 to 1000 nM | 1000 to 5000 nM
13 | Cn1ccc(S(=O)(=O)N2CC[C@]3(C2)C2=C(N=NC2)NC2=C3C(=O)CC(C)(C)C2)n1 [US20250313563, Compound 945714] | < 100 nM | < 100 nM
14 | Cn1cc(S(=O)(=O)N2CC[C@]3(C2)C2=C(N=NC2)NC2=C3C(=O)CC(C)(C)C2)cn1 [US20250313563, Compound 951726] | < 100 nM and 1000 to 5000 nM | < 100 nM and 1000 to 5000 nM
15 | CC(C)(C)CC1N=NC2=C1[C@@](C)(c1cccc(S(=O)(=O)N3CCCC3)c1)C1=C(CC(C)(C)NC1=O)N2 (some centres undefined) [US20250313563, Compound 108794] | > 5000 nM | > 5000 nM
16 | CO[C@H]1CC[C@@]2(CC1)C1=C(N=NC1)NC1=C2C(=O)CC(C)(C)C1 [US20250313563, Compound 884119] | < 100 nM | 100 to 1000 nM
17 | CC(=O)N1C[C@]2(C[C@]3(CO2)C2=C(N=NC2)NC2=C3C(=O)CC(C)(C)C2)[C@H]1C [US20250313563, Compound 948439] | < 100 nM | < 100 nM
18 | CC[C@@]1(c2cccc(-c3cnn4cc(F)cc(F)c34)c2)C2=CN=NC2NC2=C1C(=O)NC(C)(C)C2 (some centres undefined) [US20250313563, Compound 950565] | < 100 nM | 100 to 1000 nM
19 | CCC1(c2cccc(N3CCOCC3)c2)C2=C(CC(C)(C)CC2=O)NC2N=NC(C)=C21 (centres undefined) [US20250313563, Compound 874312] | < 100 nM | < 100 nM
20 | CC[C@]1(c2cccc(C(F)(F)F)c2)C2=CN=NC2NC2=C1C(=O)N[C@@H](C)C2 (some centres undefined) [US20250313563, Compound 912097] | 100 to 1000 nM | > 5000 nM
21 | CC1(C)CC(=O)C2=C(C1)NC1=C(CN=N1)[C@]21COC2(CN(C(=O)C(C)(F)F)C2)C1 [US20250313563, Compound 947838] | < 100 nM | < 100 nM
22 | CC[C@]1(c2cccc(C(F)(F)F)c2)C2=CN=NC2NC2=C1C(=O)N[C@H](C(C)(C)C)C2 (some centres undefined) [US20250313563, Compound 945920] | < 100 nM and 100 to 1000 nM | 100 to 1000 nM and 1000 to 5000 nM
23 | CC[C@]1(c2cccc(N(C)c3cc(C)ccn3)c2)C2=CN=NC2NC2=C1C(=O)CC(C)(C)C2 (some centres undefined) [US20250313563, Compound 945616] | > 5000 nM | > 5000 nM
24 | CC[C@]1(c2cccc(-c3ccnc(C)c3)c2)C2=C(N=NC2)NC2=C1C(=O)[C@H]1CC[C@@H]2C1 [US20250313563, Compound 943917] | < 100 nM | 100 to 1000 nM
25 | CCC1(c2ccc(F)cc2)C2=C(N=NC2)NC2=C1C(=O)CC(C)(C)C2 (centres undefined) [US20250313563, Compound 772965] | 1000 to 5000 nM | > 5000 nM
26 | Cn1cc([C@H]2CC[C@]3(CC2)C2=C(N=NC2)NC2=C3C(=O)CC(C)(C)C2)cn1 [US20250313563, Compound 949322] | 100 to 1000 nM | 1000 to 5000 nM

Row | SMILES | IC50 [1] | IC50 [2]
27 | CC[C@]1(c2cccc(Br)c2)C2=CN=NC2NC2=C1C(=O)[C@@H](F)C(C)(C)C2 (some centres undefined) [US20250313563, Compound 835315] | 100 to 1000 nM | 1000 to 5000 nM
28 | C[C@@H]1C[C@H](C)C[C@]2(C1)C1=C(N=NC1)NC1=C2C(=O)CC(C)(C)C1 [US20250313563, Compound 884113] | 100 to 1000 nM | 1000 to 5000 nM
29 | COC(=O)C1CCC2(CC1)C1=C(N=NC1)NC1=C2C(=O)CC(C)(C)C1 (centres undefined) [US20250313563, Compound 918270] | 100 to 1000 nM | 100 to 1000 nM
30 | CC[C@]1(c2cccc(-c3c(C)nnn3C)c2)C2=CN=NC2NC2=C1C(=O)CC(C)(C)C2 (some centres undefined) [US20250313563, Compound 946099] | < 100 nM | < 100 nM and 100 to 1000 nM
31 | CCC1(c2cccc(C(F)(F)F)c2)C2=CN=NC2NC2=C1C(=O)N(C)C(C)(C)C2 (centres undefined) [US20250313563, Compound 823130] | < 100 nM | 100 to 1000 nM
32 | CCC1(c2cccc(C(F)(F)F)c2)C2=CN=NC2NC2=C1C(=O)N(Cc1ccccc1)CC2 (centres undefined) [US20250313563, Compound 897749] | 100 to 1000 nM | > 5000 nM
33 | CC[C@@]1(c2cccc(C(F)(F)F)c2)C2=CN=NC2NC2=C1C(=O)CC(C)(C)C2 (some centres undefined) [US20250313563, Compound 790755] | 100 to 1000 nM | > 1700 nM
34 | CC[C@@]1(c2cccc(N(C)c3cc(C)ccn3)c2)C2=CN=NC2NC2=C1C(=O)CC(C)(C)C2 (some centres undefined) [US20250313563, Compound 945609] | < 100 nM | 100 to 1000 nM
35 | CC(C)CC(=O)N1CC2(C1)CC1(CO2)C2=C(N=NC2)NC2=C1C(=O)CC(C)(C)C2 (centres undefined) [US20250313563, Compound 947302] | < 100 nM | < 100 nM
36 | CC[C@]1(c2cccc(N(C)c3cccnn3)c2)C2=CN=NC2NC2=C1C(=O)CC(C)(C)C2 (some centres undefined) [US20250313563, Compound 911975] | 100 to 1000 nM | 1000 to 5000 nM
37 | CC[C@]1(c2cccc(N(C)c3cnccn3)c2)C2=CN=NC2NC2=C1C(=O)CC(C)(C)C2 (some centres undefined) [US20250313563, Compound 915316] | < 100 nM | < 100 nM
38 | CCn1cc(N2CCC3=C(C2=O)[C@](CC)(c2cccc(C(F)(F)F)c2)C2=CN=NC2N3)cn1 (some centres undefined) [US20250313563, Compound 949867] | < 100 nM | 100 to 1000 nM
39 | CC1(C)CC2=C(C(=O)[C@H]1F)C1(CCOCC1)C1=C(N=NC1)N2 [US20250313563, Compound 883836] | 100 to 1000 nM | 1000 to 5000 nM
40 | CC[C@]1(c2cccc(-c3ccnn3C)c2)C2=CN=NC2NC2=C1C(=O)NC1(CCS(=O)(=O)CC1)C2 (some centres undefined) [US20250313563, Compound 949400] | 1000 to 5000 nM | > 5000 nM
41 | CC[C@]1(c2ccccc2)C2=CN=NC2NC2=C1C(=O)C[C@@]1(CCCOC1)C2 (some centres undefined) [US20250313563, Compound 816879] | 100 to 1000 nM | 100 to 1000 nM
42 | CC[C@]1(c2cccc(Oc3ncccn3)c2)C2=C(CC(C)(C)NC2=O)NC2N=NC(F)=C21 (some centres undefined) [US20250313563, Compound 951949] | < 100 nM and 100 to 1000 nM | 100 to 1000 nM and > 5000 nM
43 | COc1ccc(C)c(S(=O)(=O)N2CCC3(CC2)C2=C(N=NC2)NC2=C3C(=O)CC(C)(C)C2)c1 [US20250313563, Compound 947245] | < 100 nM | 100 to 1000 nM
44 | CC1(C)CC(=O)C2=C(C1)NC1N=NC=C1[C@@]21CO[C@@H](c2ccccc2)C1 (some centres undefined) [US20250313563, Compound 946073] | < 100 nM | 100 to 1000 nM
45 | CC1(C)CC(=O)C2=C(C1)NC1=C(CN=N1)C21CCC2(CCC(=O)N2C(=O)OC(C)(C)C)CC1 (centres undefined) [US20250313563, Compound 912217] | 1000 to 5000 nM | > 5000 nM
46 | CC[C@@]1(c2cccc(-c3ccnc4ccc(OC)cc34)c2)C2=CN=NC2NC2=C1C(=O)NC(C)(C)C2 (some centres undefined) [US20250313563, Compound 948527] | < 100 nM | < 100 nM
47 | CCC1(c2cccc(-c3ccnc4ccccc34)c2)C2=CN=NC2NC2=C1C(=O)CC(C)(C)C2 (centres undefined) [US20250313563, Compound 932631] | < 100 nM | < 100 nM
48 | CC1(C)CC(=O)C2=C(C1)NC1=C(CN=N1)C21CCN(S(=O)(=O)c2cnn(C(C)(C)C)c2)CC1 [US20250313563, Compound 945677] | < 100 nM | 100 to 1000 nM
49 | CCC1(c2cccc(-c3ccncc3)c2)C2=CN=NC2NC2=C1C(=O)CC(C)C2 (centres undefined) [US20250313563, Compound 856947] | < 100 nM | 100 to 1000 nM
50 | CC[C@]1(c2cccc(-c3ccnc(C)c3)c2)C2=CN=NC2NC2=C1C(=O)NC(C)(C)C2 (some centres undefined) [US20250313563, Compound 927325] | 100 to 1000 nM | 100 to 1000 nM
51 | CC[C@@]1(c2cccc(-c3cn(C)nc3C(C)C)c2)C2=C(CC(C)(C)CC2=O)NC2N=NC(C)=C21 (some centres undefined) [US20250313563, Compound 913029] | < 100 nM | < 100 nM
52 | CC1(C)CC(=O)C2=C(C1)NC1=C(CN=N1)[C@]21COC2(CN(C(=O)C3CCCC3)C2)C1 [US20250313563, Compound 943958] | 100 to 1000 nM | 1000 to 5000 nM
